Measured values reported in ChEMBL document CHEMBL4602681, “Quintaquinone, a Merosesquiterpene from the Yellow Sponge Verongula cf. rigida Esper” (J Nat Prod, 2020).

Assays:
HeLa = test: Antiproliferative activity against human HeLa cells assessed as reduction in cell viability after 72 hrs by sulforhodamine B assay; assay type: functional, cell-based
MCF7 = test: Antiproliferative activity against human MCF7 cells assessed as reduction in cell viability after 72 hrs by sulforhodamine B assay; assay type: functional, cell-based; details: MCF7, 72 h
PC-3 = test: Antiproliferative activity against human PC3 cells assessed as reduction in cell viability by MTT assay; assay type: functional, cell-based
LNCaP = test: Inhibition of steroid 5-alpha-reductase in human LNCAP cells assessed as reduction in 5- dihydrotestosterone formation at 100 uM incubated for 60 mins by LC-MS analysis relative to control; assay type: cell-based
[1] = Inhibition of steroid 5-alpha-reductase in human LNCAP cells assessed as reduction in 5- dihydrotestosterone formation incubated for 60 mins by LC-MS analysis; assay type: cell-based; details: 1 h

SMILES	IC50 (HeLa) [µM]	IC50 (MCF7) [µM]	IC50 (PC-3) [µM]	IC50 [1] [µM]	inhibition (LNCaP) [%]
COC(=O)c1cc(O)c(O)c(C[C@H]2C(C)=CC[C@H]3C(C)(C)CCC[C@]23C)c1	> 10	> 10	> 10		< 50
COC1=CC(=O)C(O)=C(C/C=C(\C)CC/C=C(\C)CCC=C(C)C)C1=O	> 10	> 10	> 10		< 50
COC(=O)c1cc(C[C@H]2C(C)=CC[C@H]3C(C)(C)CCC[C@]23C)c(O)c(O)c1O	> 10	> 10	> 10		< 50
CC(C)(C)NC(=O)[C@H]1CC[C@H]2[C@@H]3CC[C@H]4NC(=O)C=C[C@]4(C)[C@H]3CC[C@]12C [FINASTERIDE]				0.76	
COC1=CC(=O)C2=C(C[C@H]3[C@]4(C)CCCC(C)(C)[C@H]4CC[C@@]3(C)O2)C1=O	> 10	> 10	> 10	0.73	

The next lines start with results.

IC50 (HeLa) [µM]	IC50 (MCF7) [µM]	IC50 (PC-3) [µM]	IC50 [1] [µM]	SMILES	inhibition (LNCaP) [%]
> 10	> 10	> 10		C=C1CCC[C@H]2[C@](C)(CC3=C(O)C(=O)C(CCCCC(C)=O)=C(OC)C3=O)[C@@H](C)CC[C@]12C	< 50
> 10	> 10	> 10		C=C1CCC[C@H]2[C@](C)(CC3=C(O)C(=O)C=C(NCCc4ccccc4)C3=O)[C@@H](C)CC[C@]12C	< 50
> 10	> 10	> 10		C=C1CCC[C@H]2[C@](C)(CC3=C(O)C(=O)C=C(OC)C3=O)[C@@H](C)CC[C@@]12C	< 50
> 10	> 10	> 10		C=C1CCC[C@H]2[C@](C)(CC3=C(O)C(=O)C=C(NCC(C)C)C3=O)[C@@H](C)CC[C@]12C	< 50
> 10	> 10	> 10		C=C1CCC[C@H]2[C@](C)(CC3=C(O)C(=O)C=C(OC)C3=O)[C@@H](C)CC[C@]12C [ILIMAQUINONE]	< 50
